Experimental data published in patent US7829500B2, “Plant-activating agent” (Kao Corporation, priority 2000, dated 2010).

System: Chlorella cells
Assay: Test of reproductive ability using chlorella cells
Format: cell-based
Conditions: relative number of chlorella cells after 14 days, non-treated area = 100
Procedure: Chlorella cells which were green cells of a […] were cultured with vibration in an inorganic salt medium. […] The concentration of the cells was set to 1.00×10^5 (cells per ml) at the start of the test. […] As the inorganic salt medium, a Linsmaier-Skoog (LS) medium was used. Three media were used as the treated areas and the non-treated areas every the plant-activating agent or the plant-activating composition. The average thereof was compared with that in the non-treated areas.

[1] = Table 1, LS medium, concentration (ppm) as in table

Row | Molecule | reproductive ability (Table A1) | reproductive ability [1] | reproductive ability (Table B1)
1 | CCCCCCCCCCCCCC(=O)O [Inventive product A1-1, Myristic acid (LUNAC MY-98)] | 127 | – | –
2 | Citric acid C14 monoamide [Inventive product 1-6] | – | 136 | –
3 | CC(=O)O [Comparative product A1-1, Acetic acid, reference compound] | 90 | – | –
4 | CCCCCCCCCCCCCCCCNC(=O)C(O)CO (stereo not drawn) [Inventive product B1-7, Glyceric acid cetyl amide] | – | – | 120
5 | CC(O)C(=O)O (stereo not drawn) [Comparative product A1-4, Lactic acid, reference compound] | 93 | – | –
6 | Hexaglycerol ester of stearic acid [Inventive product B1-8] | – | – | 123
7 | CCCCCCCC/C=C\CCCCCCCC(=O)O [Inventive product A1-5, Oleic acid] | 148 | – | –
8 | O=C1OCC(CO)O1 (stereo not drawn) [Inventive product B1-9, Glycerol carbonate] | – | – | 126
9 | Citric acid C18 monoester [Inventive product 1-1] | – | 142 | –
10 | Citric acid C18 monoamide [Inventive product 1-5] | – | 139 | –
11 | CCCCCCCCCCCCCCCCCCCCCC(=O)O [Inventive product A1-6, Behenic acid (LUNAC BA)] | 150 | – | –
12 | CCC(=O)O [Comparative product A1-3, Propionic acid, reference compound] | 94 | – | –
13 | OCC(O)CO [Comparative product B1-1, Glycerol, reference compound] | – | – | 98
14 | Citric acid C12 monoamide [Inventive product 1-8] | – | 128 | –
15 | Stearic acid monoglyceride [Inventive product B1-3] | – | – | 132
16 | Citric acid C18 diester [Inventive product 1-7] | – | 138 | –
17 | Citric acid C18 monoester potassium salt [Inventive product 1-3] | – | 138 | –
18 | CCCCCCCCCCCCCCCCCCOC(=O)C(O)CO (stereo not drawn) [Inventive product B1-6, Glyceric acid stearyl ester] | – | – | 122
19 | CCCCCCCCCCCCCCCCCCCCCCCCCCCCCC(=O)O [Inventive product A1-7, Melissic acid] | 138 | – | –
20 | CCCCCCCCCCCCCCCCCCOCC(O)CO (stereo not drawn) [Inventive product B1-4, Batyl alcohol] | – | – | 130
21 | CC(O)C(=O)O (stereo not drawn) [Comparative product 1-1, Lactic acid, reference compound] | – | 99 | –
